Data taken from US20060069132A1, “Azolecarboxamide herbicides” (priority 2004, published 2006).

Key:
Surinam grass = assay: Test C pre-/postemergence herbicide test; type: in vivo, Urochloa decumbens; conditions: for Plant response rating, Surinam Grass: preemergence
In short: (§1)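 Pre- and postemergence application, solvent/surfactant formulation; post at 1- to 4-leaf stage (2–18 cm). Greenhouse 12–14 d. Visual rating vs controls, 0 = no effect, 100 = complete control.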

giant foxtail = assay: Test C pre-/postemergence herbicide test; type: in vivo, Setaria faberi; conditions: for Plant response rating, Foxtail, Giant: preemergence
In short: as §1

johnsongrass = assay: Test C pre-/postemergence herbicide test; type: in vivo, Sorghum halepense; conditions: for Plant response rating, Johnsongrass: preemergence
In short: as §1

kochia = assay: Test C pre-/postemergence herbicide test; type: in vivo, Kochia scoparia; conditions: for Plant response rating, Kochia: preemergence
In short: as §1

yellow nutsedge = assay: Test C pre-/postemergence herbicide test; type: in vivo, Cyperus esculentus; conditions: for Plant response rating, Nutsedge, Yellow: preemergence
In short: as §1

rice = assay: Test C flooded paddy test; type: in vivo, Oryza sativa; conditions: for Plant response rating, Rice: 500 g ai/ha, visual rating after 12 to 14 days
In short: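 Postemergence sprays applied to plants 2 to 18 cm tall (1- to 4-leaf stage); paddy species grown to 2-leaf stage under flooding. After 12 to 14 days in greenhouse, visual rating versus untreated controls on 0–100 scale (0 no effect, 100 complete control).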

[1] = 125 g ai/ha, scale 0 (no effect) to 100 (complete control), visual, 12 to 14 days
[2] = Preemergence, 500 g ai/ha, scale 0 to 100, 0 no effect, 100 complete control
[3] = 125 g ai/ha, scale 0 to 100 (0 no effect, 100 complete control)
[4] = 250 g ai/ha, scale of 0 to 100, 0 is no effect, 100 is complete control
[5] = scale 0 to 100 (0 no effect, 100 complete control)
[6] = 500 g ai/ha, scale 0 to 100 (0 no effect, 100 complete control), visual, 12 to 14 days

Compound | Plant response rating, Foxtail, Giant (giant foxtail; 62 g ai/ha, scale 0 to 100) | Plant response rating, Foxtail, Giant (giant foxtail; [1]) | Plant response rating, Johnsongrass (johnsongrass; 62 g ai/ha, scale 0 to 100) | Plant response rating, Johnsongrass (johnsongrass; [1]) | Plant response rating, Kochia (kochia; 62 g ai/ha, scale 0 to 100) | Plant response rating, Kochia (kochia; [1]) | Plant response rating, Nutsedge, Yellow (yellow nutsedge; 62 g ai/ha, scale 0 to 100) | Plant response rating, Nutsedge, Yellow (yellow nutsedge; [1]) | Rice plant response rating (rice; [3]) | Rice plant response rating (rice; [4]) | Plant response rating, Rice (rice; [5]) | Plant response rating, Surinam Grass (Surinam grass; 250 g ai/ha, scale 0-100) | Plant response rating, Surinam Grass (Surinam grass; [6]) | Plant response rating, Foxtail, Giant (giant foxtail; 250 g ai/ha, scale 0-100) | Plant response rating, Foxtail, Giant (giant foxtail; [6]) | Plant response rating, Johnsongrass (johnsongrass; 250 g ai/ha, scale 0-100) | Plant response rating, Kochia (kochia; 250 g ai/ha, scale 0-100) | Plant response rating, Kochia (kochia; [6]) | Plant response rating, Nutsedge, Yellow (yellow nutsedge; 250 g ai/ha, scale 0-100) | Plant response rating, Nutsedge, Yellow (yellow nutsedge; [6]) | also measured
CCn1nc(C(C)(C)C)cc1C(=O)Nc1cccc(C(N)=O)n1 [Compound 162, 6-[[[3-(1,1-dimethylethyl)-1-ethyl-1H-pyrazol-5-yl]carbonyl]amino]-2-pyridinecarboxamide] | 55 | 60 | 65 | 80 | 65 | 75 | 0 | 20 | 60 | 70 | 75 | – | – | – | – | – | – | – | – | – | Plant response rating, Surinam Grass (Surinam grass; 62 g ai/ha, scale 0 to 100): 0; Plant response rating, Surinam Grass (Surinam grass; [1]): 75; Surinam Grass plant response rating (Surinam grass; [2]): 95; Plant response rating, Foxtail, Giant (giant foxtail; 250 g ai/ha, scale 0 to 100 (0 no effect, 100 complete control), visual, 12 to 14 days): 60; Foxtail, Giant plant response rating (giant foxtail; [2]): 75; Johnsongrass plant response rating (johnsongrass; [2]): 95; Kochia plant response rating (kochia; [2]): 100; Nutsedge, Yellow plant response rating (yellow nutsedge; [2]): 60; Rice plant response rating (rice; 62 g ai/ha, scale 0 to 100 (0 no effect, 100 complete control)): 55
CCc1nn(C(C)(C)C)cc1C(=O)Nc1cc(C(=O)N(C)C)ccn1 [Compound 293] | 10 | 70 | 65 | 95 | 100 | 100 | 0 | 0 | 30 | 65 | 80 | 100 | 100 | 100 | 100 | 100 | 100 | 100 | 0 | 20 | Plant response rating, Johnsongrass (johnsongrass; [6]): 100; Rice plant response rating (rice; 62 g ai/ha, scale 0 to 100): 0
CCn1nc(C(C)(C)C)cc1C(=O)Nc1cc(C(=S)N(C)C)ccc1F [Compound 294] | – | 80 | 80 | 100 | 100 | 100 | 50 | 55 | 75 | 85 | 90 | 100 | 100 | 90 | 90 | 100 | 100 | 100 | 80 | 90 | Plant response rating, Surinam Grass (Surinam grass; 62 g ai/ha, scale 0 to 100): 85; Plant response rating, Johnsongrass (johnsongrass; [6]): 100; Rice plant response rating (rice; 62 g ai/ha, scale 0 to 100): 70
CCn1nc(C2(C)CC2)cc1C(=O)Nc1cc(C(=O)N(C)C)ccc1F [Compound 299] | 100 | 100 | 85 | 100 | 100 | 100 | 40 | 50 | 80 | 80 | 85 | 100 | 100 | 100 | 100 | 100 | 100 | 100 | 60 | 80 | Plant response rating, Surinam Grass (Surinam grass; 62 g ai/ha, scale 0 to 100): 75; Plant response rating, Johnsongrass (johnsongrass; [6]): 100; Rice plant response rating (rice; 62 g ai/ha, scale 0 to 100): 70
CCn1nc(C(C)(C)C)cc1C(=S)Nc1cc(C(=S)N(C)C)ccc1F [Compound 305] | 35 | 85 | 65 | 90 | 100 | 100 | 10 | 20 | 80 | 85 | 85 | 60 | 60 | 100 | 100 | 95 | 100 | 100 | 25 | 50 | Plant response rating, Surinam Grass (Surinam grass; 62 g ai/ha, scale 0 to 100): 50; Plant response rating, Johnsongrass (johnsongrass; [6]): 95; Rice plant response rating (rice; 62 g ai/ha, scale 0 to 100): 75
CCNC(=O)c1cccc(NC(=O)c2cc(C3(C)CC3)nn2CC)c1 [Compound 306] | 5 | 40 | 40 | 60 | 0 | 80 | 0 | 0 | 40 | 55 | 70 | 40 | 95 | 90 | 100 | 80 | 100 | 100 | 10 | 40 | Rice plant response rating (rice; 62 g ai/ha, scale 0 to 100): 30
